Experimental data from publication PMC3598812, “Evaluation of Anti-Hyperalgesic and Analgesic Effects of Two Benzodiazepines in Human Experimental Pain: A Randomized Placebo-Controlled Study” (PLoS ONE, 2013).

Key:
healthy male volunteers [1] = assay: Intramuscular single electrical stimulation pain threshold (tibialis anterior); format: in vivo, human; settings: mean (SD)
Method: (§1) Electrical stimulation was performed through electrodes placed distal to the lateral malleolus. A 25 ms, train-of-five, 1 ms, square-wave impulse (perceived as one stimulus), was delivered by a computer-controlled constant current stimulator (Digitimer DS7A, Neurospec, Letchworth Garden City, UK). The current intensity was increased from 1 mA in steps of 0.5 mA until a pain sensation was evoked.
A needle was placed in the tibialis anterior muscle, 14 cm distal from the caudal end of the patella and 20 mm in depth. The same single and repeated stimulation patterns and the same procedure described for cutaneous stimulation were used.

healthy male volunteers [2] = assay: Cutaneous repeated (20 stimuli) electrical stimulation, VAS; format: in vivo, human; parameters: AUC of VAS during 20 cutaneous electrical stimuli: unit not given beside the values; settings: mean (SD); for Maximal VAS during 20 cutaneous electrical stimuli: VAS 0-10
Method: The stimulus burst used for single stimulus was repeated for a train of 20 pulses at 2 Hz, at an intensity corresponding to the temporal summation threshold. During this 10 s stimulation, pain intensity was continuously rated by the subject with an electronic VAS, and the area under the curve (AUC) was computed. Additionally, the maximal VAS during stimulation was recorded.

healthy male volunteers [3] = assay: Cuff algometry (tourniquet cuff on the leg, VAS-time AUC); format: in vivo, human; parameters: AUC of VAS during cuff algometry: unit not given beside the values; settings: for AUC of VAS during cuff algometry: mean (SD)
Excerpt: A tourniquet cuff was applied to the middle of the leg, at the level of the heads of the gastrocnemius and soleus muscle. The cuff was applied at the side contralateral to the side of electrical stimulation in order not to interfere with the positioning of the intramuscular electrodes. During stimulation, the volunteer rated the pain intensity on an electronic VAS scale. The cuff was inflated with compressed air until VAS 6 was reached. The maximum allowed inflating pressure was 200 kPa. The pressure was maintained for 10 min or until the subjects rated the pain as intolerable. The area under the curve VAS-time was computed. For those subjects who felt intolerable pain before 10 min, the time when the cuff was deflated was recorded and VAS 10 was extrapolated until 10 min. Additionally, the maximal VAS during inflation was recorded.

patients / volunteers = settings: cited from earlier work
healthy male volunteers [4] = assay: Area of dynamic mechanical hyperalgesia after intradermal capsaicin (cotton wool stroking); format: in vivo, human; settings: single oral dose (clobazam 20 mg, clonazepam 1 mg, tolterodine 1 mg), mean (SD)
Method: The area of dynamic mechanical hyperalgesia was determined by gently stroking a hand-held cotton wool tip on a 1 cm strip of the skin, at a rate of approximately 1 cm/s. Subjects were asked to report when the sensation changed from a non-painful to a painful sensation. The borders of dynamic hyperalgesia were delineated similarly to the determination of static hyperalgesia.

healthy male volunteers [5] = assay: Cutaneous single electrical stimulation pain threshold; format: in vivo, human; settings: mean (SD)
Method: as §1
Three assessments were made and the mean of these 3 measurements was used for the data analysis.

healthy male volunteers [6] = assay: Conditioned pain modulation (cold pressor test and pressure algometry); format: in vivo, human; settings: difference in pressure pain detection threshold after vs before cold pressor test, mean (SD)
Excerpt: This method explores the endogenous modulation of nociceptive input. Under normal conditions, pain after application of a “test” nociceptive stimulus is attenuated by the application of an additional conditioning noxious stimulus to a remote body region, reflecting diffuse endogenous inhibition, [20]. In the present study, pressure pain detection threshold and cold pressure test (see below) were used as test and conditioning stimuli, respectively. An increase in pressure pain detection threshold immediately after cold pressure test was an indication of CPM.
The subjects placed their hand into a container filled with ice water. In order to maximize heterotopic stimulation, the hand contralateral to the side of pressure stimulation was used. The water was regularly mixed to maintain the temperature near to 0°C. The temperature of the water near the hand was monitored by a thermometer with a digital display (±0.1°C). The subjects were asked to keep the hand in the water until they felt an intolerable sensation of pain and were forced to remove the hand from the container, with a maximum time of 2 min.
Pressure pain detection threshold was measured again at the same time as the subject was withdrawing the hand from the water (one single measurement). CPM was measured as the difference in pressure pain detection threshold between measurements after and before the cold pressure test.

healthy male volunteers [7] = assay: Pressure pain detection and tolerance thresholds (pressure algometer, 2nd toe); format: in vivo, human; settings: mean (SD)
Method: Pain detection and tolerance thresholds were measured with an electronic pressure algometer (Somedic, Hörby, Sweden) applied at the center of the pulp of the 2nd toe. […] The pressure was increased from 0 at a rate of 30 kPa/s to a maximum pressure of 1200 kPa. Pain detection threshold was defined as the point at which the pressure sensation turned to pain. Pain tolerance threshold was defined as the point at which the subject felt the pain as intolerable. If the threshold was not reached at 1200 kPa, this value was considered as threshold. Three assessments were made and the mean of these 3 measurements were used for the data analysis.

[8] = baseline before medication, per drug session
[9] = single oral dose (clobazam 20 mg, clonazepam 1 mg, tolterodine 1 mg), 120 min after medication
[10] = single oral dose (clobazam 20 mg, clonazepam 1 mg, tolterodine 1 mg), after flumazenil 0.2 mg iv
[11] = single oral dose (clobazam 20 mg, clonazepam 1 mg, tolterodine 1 mg), 30 min after medication
[12] = single oral dose (clobazam 20 mg, clonazepam 1 mg, tolterodine 1 mg), 60 min after medication
[13] = single oral dose (clobazam 20 mg, clonazepam 1 mg, tolterodine 1 mg), 90 min after medication
[14] = placebo-controlled, double-blind trial, 114 outpatients with anxiety, mean doses 59 mg clobazam daily, 25 mg diazepam daily, ref Micromedex 2009

Row | SMILES | Pain threshold after single intramuscular electrical stimulation (healthy male volunteers [1]; [8]) | Pain threshold after single intramuscular electrical stimulation (healthy male volunteers [1]; [9]) | Pain threshold after single intramuscular electrical stimulation (healthy male volunteers [1]; [10]) | Maximal VAS during 20 cutaneous electrical stimuli (healthy male volunteers [2]; [8]) | Maximal VAS during 20 cutaneous electrical stimuli (healthy male volunteers [2]; [11]) | Maximal VAS during 20 cutaneous electrical stimuli (healthy male volunteers [2]; [12]) | Maximal VAS during 20 cutaneous electrical stimuli (healthy male volunteers [2]; [13]) | Maximal VAS during 20 cutaneous electrical stimuli (healthy male volunteers [2]; [9]) | Maximal VAS during 20 cutaneous electrical stimuli (healthy male volunteers [2]; [10]) | AUC of VAS during 20 cutaneous electrical stimuli (healthy male volunteers [2]; [8]) | AUC of VAS during 20 cutaneous electrical stimuli (healthy male volunteers [2]; [11]) | AUC of VAS during 20 cutaneous electrical stimuli (healthy male volunteers [2]; [12]) | AUC of VAS during 20 cutaneous electrical stimuli (healthy male volunteers [2]; [13]) | AUC of VAS during 20 cutaneous electrical stimuli (healthy male volunteers [2]; [9]) | AUC of VAS during 20 cutaneous electrical stimuli (healthy male volunteers [2]; [10]) | AUC of VAS during cuff algometry (healthy male volunteers [3]; [8]) | AUC of VAS during cuff algometry (healthy male volunteers [3]; [9]) | AUC of VAS during cuff algometry (healthy male volunteers [3]; [10]) | Area of dynamic hyperalgesia (healthy male volunteers [4]; 30 min after medication) | Area of dynamic hyperalgesia (healthy male volunteers [4]; 60 min after medication) | further results
1 | CN1C(=O)CC(=O)N(c2ccccc2)c2cc(Cl)ccc21 [Clobazam] | 1.7 (1.2) mA | 3.1 (4.6) mA | 2.5 (2.1) mA | 4.7 (1.8) | 4.9 (2.2) | 4.7 (1.9) | 4.3 (2.0) | 4.2 (1.8) | 4.5 (1.7) | 332 (142) | 338 (152) | 341 (167) | 328 (169) | 314 (146) | 339 (150) | 3446 (539) | 3001 (831) | 2932 (566) | 22.3 (13.2) cm^2 | 22.9 (12.4) cm^2 | Cuff algometry, overview of peak value or subgroup analysis (healthy male volunteers [3]; overview table, compared to tolterodine): Time factor significant, favouring clobazam and clonazepam compared to tolterodine; Effect on cognitive and psychomotor functions (patients / volunteers; 20 mg clobazam, unlike 2 mg clonazepam): did not affect significantly; Sedation compared with 1 mg of clonazepam (patients / volunteers; 20 mg of clobazam): less sedative; Dizziness, share of treated patients (patients / volunteers; [14]): 2%; Sedation, share of treated patients (patients / volunteers; [14]): 38%; Area of dynamic hyperalgesia (healthy male volunteers [4]; 90 min after medication): 22.4 (13.6) cm^2; Area of dynamic hyperalgesia (healthy male volunteers [4]; 120 min after medication): 16.7 (13.0) cm^2; Area of dynamic hyperalgesia (healthy male volunteers [4]; after flumazenil 0.2 mg iv): 21.3 (14.6) cm^2; Pain threshold after single cutaneous electrical stimulation (healthy male volunteers [5]; [8]): 10.0 (2.9) mA; Pain threshold after single cutaneous electrical stimulation (healthy male volunteers [5]; [11]): 10.3 (3.6) mA; Pain threshold after single cutaneous electrical stimulation (healthy male volunteers [5]; [12]): 10.2 (3.8) mA; Pain threshold after single cutaneous electrical stimulation (healthy male volunteers [5]; [13]): 11.2 (3.3) mA; Pain threshold after single cutaneous electrical stimulation (healthy male volunteers [5]; [9]): 12.2 (3.9) mA; Pain threshold after single cutaneous electrical stimulation (healthy male volunteers [5]; [10]): 12.0 (4.3) mA; Conditioned pain modulation (healthy male volunteers [6]; [8]): 71 (98) kPa; Conditioned pain modulation (healthy male volunteers [6]; [9]): 99 (99) kPa; Conditioned pain modulation (healthy male volunteers [6]; [10]): 58 (67) kPa; Pressure pain detection threshold (healthy male volunteers [7]; [8]): 432 (123) kPa; Pressure pain detection threshold (healthy male volunteers [7]; [9]): 379 (130) kPa; Pressure pain detection threshold (healthy male volunteers [7]; [10]): 393 (118) kPa
2 | Cc1ccc(O)c([C@H](CCN(C(C)C)C(C)C)c2ccccc2)c1 [Tolterodine] | 1.8 (1.2) mA | 2.2 (1.2) mA | 2.7 (1.7) mA | 4.7 (1.5) | 5.1 (1.6) | 4.8 (1.8) | 4.9 (1.8) | 4.6 (1.8) | 4.7 (1.6) | 379 (155) | 382 (134) | 362 (155) | 336 (143) | 328 (144) | 326 (136) | 3348 (743) | 2686 (1155) | 2918 (1021) | 20.3 (11.6) cm^2 | 23.3 (09.0) cm^2 | Dizziness, expected side effect frequency (patients / volunteers; ref Micromedex 2009): 2%; Somnolence, expected side effect frequency (patients / volunteers; ref Micromedex 2009): 3%; Area of dynamic hyperalgesia (healthy male volunteers [4]; 90 min after medication): 23.1 (11.3) cm^2; Area of dynamic hyperalgesia (healthy male volunteers [4]; 120 min after medication): 23.3 (09.1) cm^2; Area of dynamic hyperalgesia (healthy male volunteers [4]; after flumazenil 0.2 mg iv): 24.7 (14.6) cm^2; Pain threshold after single cutaneous electrical stimulation (healthy male volunteers [5]; [8]): 9.9 (2.2) mA; Pain threshold after single cutaneous electrical stimulation (healthy male volunteers [5]; [11]): 10.3 (2.6) mA; Pain threshold after single cutaneous electrical stimulation (healthy male volunteers [5]; [12]): 10.7 (2.3) mA; Pain threshold after single cutaneous electrical stimulation (healthy male volunteers [5]; [13]): 10.9 (2.7) mA; Pain threshold after single cutaneous electrical stimulation (healthy male volunteers [5]; [9]): 11.5 (2.3) mA; Pain threshold after single cutaneous electrical stimulation (healthy male volunteers [5]; [10]): 12.1 (2.6) mA; Conditioned pain modulation (healthy male volunteers [6]; [8]): 68 (100) kPa; Conditioned pain modulation (healthy male volunteers [6]; [9]): 72 (114) kPa; Conditioned pain modulation (healthy male volunteers [6]; [10]): 77 (79) kPa; Pressure pain detection threshold (healthy male volunteers [7]; [8]): 403 (118) kPa; Pressure pain tolerance threshold (healthy male volunteers [7]; [8]): 674 (221) kPa; Pressure pain detection threshold (healthy male volunteers [7]; [9]): 371 (88) kPa; Pressure pain detection threshold (healthy male volunteers [7]; [10]): 382 (118) kPa; Pressure pain tolerance threshold (healthy male volunteers [7]; [10]): 685.0 (203) kPa
